Experimental findings from PubChem BioAssay (NCI) are described below.

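Values below derive from 48-hour exposures of cells grown in 96-well plates, with endpoints linearly interpolated between the two concentrations bracketing the appropriate inhibition level. TGI is the concentration that stops growth completely.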

Common to all, as to test: growth of human tumour cells (NCI), 48 h
Test [1] deals with IGROV1 ovarian.
Test [2] concerns PC-3 prostate.
In test [3] the test system is MDA-MB-231 breast.
The test system of test [4] is HCT-116 colon.
The test system of test [5] is OVCAR-4 ovarian.
Test [6] relates to RXF 393 renal.
Test [7] has as its system SK-MEL-5 melanoma.
Test [8] concerns NCI/ADR-RES ovarian.
Test [9] concerns ACHN renal.
For test [10], the system named is SF-295 CNS.
In test [11] the test system is A498 renal.
Test [12] deals with MDA-MB-435.
In test [13] the test system is UO-31 renal.
The subject of test [14] is RPMI-8226 leukemia.
The test system of test [15] is MDA-N.

Take `COCn1cc(C2=C(C)C(=O)C(C)=C(C)C2=O)cn1`: the TGI is > 100 µM in test [1]; > 100 µM in test [2]; 40.8 µM in [3]; 36.7 µM in test [4]; 31.7 µM in test [5]; > 100 µM in [6]. Moreover, the TGI in test [7] is > 100 µM; in [8], 59.3 µM; in test [9], > 100 µM; in [10], > 100 µM; in test [11], > 100 µM; in test [12] it was 33.9 µM. Also, the TGI is > 100 µM in test [13], 60.2 µM in test [14] and > 100 µM in test [15].
For `N#Cc1c(Cl)cc(C#N)n2c1nc1ccccc12`, the TGI in test [1] worked out at 28.3 µM; in test [2], 32.6 µM; in test [3], 24 µM; in [4] it was 12.8 µM; in test [5], 41.9 µM; in test [6] it was 28.7 µM. Besides, the TGI in test [7] was found to be 29.3 µM; in test [8] it was 42.4 µM; in test [9], 28.7 µM; in [10], 30.1 µM; in [11], 49.9 µM; in test [12], 26.2 µM. In addition, the values for the TGI in test [13], in [14] and in test [15] were 19 µM, 17.2 µM and 22.7 µM, respectively.
Consider `O=Cc1ccc2ccocc1-2`, for which the TGI in [1], in [2], in test [3], in [4], in [5] and in [6] was > 100 µM throughout. Further, the TGI in [7], in test [8], in [9], in test [10], in test [11] and in test [12] was > 100 µM in each case. Further, the TGI in test [13], in test [14] and in [15] was > 100 µM throughout.
As to `N=c1oc2ccccc2cc1C(=O)Nc1cccc2ccccc12`, the TGI in [1], in [2], in test [3], in [4], in test [5] and in test [6] was > 100 µM in each case. Besides, the TGI in [7], in test [8], in test [9], in [11], in [12] and in [14] was > 100 µM throughout. Besides, the TGI in [15] is > 100 µM.
On to `CSC1=NN(C(C)=O)C(C(OC(C)=O)C(OC(C)=O)C(OC(C)=O)C(COC(C)=O)OC(C)=O)S1` (stereo not given), for which the TGI in test [1], in test [2], in test [3], in [4], in test [5] and in test [6] was > 100 µM throughout. The TGI in test [7], in test [8], in [9], in [10], in [11] and in test [12] was > 100 µM throughout. Moreover, the TGI in test [13], in [14] and in [15] was > 100 µM each time.
As to `CC1(C)Cc2c(sc3[nH]c(=S)[nH]c(=S)c23)CS1`, the TGI in test [1] was > 100 µM; in [2], > 100 µM; in test [3], > 100 µM; in test [4] it was > 100 µM; in [5], 65.8 µM; in test [6], > 100 µM. Besides, the TGI in [7] is > 100 µM; in test [8], > 100 µM; in [11], > 100 µM; in [12], > 100 µM; in test [13], > 100 µM; in test [14], 68.5 µM. For the same compound, in test [15], the TGI is > 100 µM.
With `CCOC(=O)[C@@H]1[C@@H](c2ccccc2)N(C)O[C@@]1(c1ccccc1)C(F)(F)F`, the TGI in test [1], in [2], in [3], in test [4], in test [5] and in test [6] was > 100 µM in each case. The TGI in test [7] is 72.3 µM; in [8] it was > 100 µM; in test [9], > 100 µM; in [10], > 100 µM; in [11], > 100 µM; in test [12], > 100 µM. The TGI in test [13], in [14] and in test [15] was > 100 µM each time.
Take `Cn1nnc2c(C(N)=S)ncn2c1=O`: the TGI in [1], in test [2], in test [3], in test [4], in test [5] and in test [6] was > 100 µM throughout. Further, the TGI in [7], in [8], in [9], in test [10], in [11] and in test [12] was > 100 µM in each case. Also, the TGI in test [13], in [14] and in [15] was > 100 µM each time.
Take `COC(=O)[C@@H]1CN(C(=O)CCc2ccccc2)C(=O)N1`: the TGI in test [1], in test [2], in [3], in test [4], in [5] and in test [6] was > 100 µM throughout. Also, the TGI in test [7], in test [8], in test [9], in test [10], in test [11] and in [12] was > 100 µM throughout. Also, the TGI in [13], in test [14] and in test [15] was > 100 µM in each case.
In the case of `CN(C)[C@@H]1C(=O)C(C(=O)NCNc2nc3n[nH]nc3c(=O)[nH]2)=C(O)[C@@]2(O)C(=O)C3=C(O)c4c(O)cccc4[C@@](C)(O)[C@H]3C[C@@H]12`, the TGI in test [1] was > 100 µM; in test [2], > 100 µM; in test [3] it was > 100 µM; in [4], 24.7 µM; in test [5], > 58.3 µM; in test [6] it was 5.37 µM. In addition, the TGI was 10.9 µM in [7]; > 100 µM in [8]; > 100 µM in test [9]; > 100 µM in test [10]; > 100 µM in [11]; 7.35 µM in [12]. Besides, the TGI was determined as 18.5 µM in test [13], 6.7 µM in test [14] and 14.5 µM in test [15].
Turning to `CC(=O)NS(=O)(=O)c1ccc(NCc2cccc3c(=O)c4ccc(Cl)cc4oc23)cc1`, the TGI in [1] is > 100 µM; in test [2], > 86.2 µM; in test [3], > 100 µM; in test [4], > 100 µM; in test [5] it was > 100 µM; in test [6], 78.9 µM. For the same compound, the TGI is > 100 µM in test [7]; > 80.7 µM in test [8]; > 100 µM in test [9]; > 100 µM in [10]; > 100 µM in test [11]; > 100 µM in test [12]. The TGI in [13], in test [14] and in test [15] was > 100 µM in each case.
Consider `C=C(C)[C@H]1CC[C@@]23O[C@@H]2[C@@H](C[C@@]2(C)CC(=O)[C@H](CC(=O)C1)O2)OC(=O)[C@@]12CC[C@H](C(=C)C)CC(=O)C[C@H]4O[C@](C)(CC4=O)C[C@@H](OC3=O)[C@@H]1O2`, for which the TGI in test [1], in [2], in [3], in test [4], in [5] and in test [6] was > 100 µM throughout. The TGI in test [7], in test [8], in test [9], in test [10], in test [11] and in [12] was > 100 µM each time. In addition, the TGI in test [13], in test [14] and in test [15] was > 100 µM each time.
As to `[N-]=[N+]=NC1C(O)C(CO)OC1n1ccc(N)nc1=O` (stereo not given), the TGI in test [1] was > 625 µM; in [2], > 625 µM; in test [3], > 564 µM; in [4] it was > 625 µM; in test [5], > 625 µM; in test [6], > 602 µM. In addition, the TGI in test [7], in test [8], in [9], in test [10], in [11] and in test [12] was > 625 µM throughout. The TGI in [13] is 616 µM; in test [14] it was > 625 µM; in test [15], > 625 µM.
On to `O[C@@]1(C#Cc2ccc3c(c2)OCO3)CCC[C@H]1NCc1ccccc1`, for which the TGI in [1] is 46.9 µM; in test [2], 51.3 µM; in test [3] it was > 100 µM; in [5], > 100 µM; in test [6], 86.2 µM; in test [7] it was 36.2 µM. Also, the TGI in test [8] is 40.6 µM; in test [9], > 100 µM; in test [10], 40.3 µM; in [11] it was 92.5 µM; in [12], 50.2 µM; in [13], 43.9 µM. Further, the results for the TGI in test [14] and in test [15] were 56 µM and 32.5 µM, respectively.
